Values of other authors as cited in article PMC3150604 (Journal of medicinal chemistry, 2011).

Target: σ1 receptor
Settings: read-out: σ1 receptor Ki; literature value ref 46

Ki: 9.39 nM
SMILES: O[C@H]1CCCC[C@@H]1N1CCC(c2ccc(I)s2)CC1 [compound 5, (1S,2S)-2-(4-(5-iodothiophen-2-yl)piperidin-1-yl)cyclohexanol]
